Test results from the supplement of paper PMC11451515.

System: SEM cells
Assay: cell viability relative to DMSO control; higher = less cytotoxic
Details: 48 h
Procedure, shortened: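 In 1536-well plates, 5 μl of leukemia cells were seeded per well: 500 cells/well for NOMO1 or SEM and 1000 cells/well for P12-Ichikawa. Each line had first been adapted for at least four passages in each medium. Library compounds in DMSO were pin-dosed at 11 threefold concentrations between 47 μM and 0.79 nM, and CellTiter-Glo One luminescence was read after 48 h at 37°C. Viability is a per-plate percentage relative to DMSO wells, with cell-free wells as background.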

[1] = HPLM + 10% dialyzed FBS, 0.000781 µM
[2] = HPLM + 10% dialyzed FBS, 0.00234 µM
[3] = HPLM + 10% dialyzed FBS, 0.00702 µM
[4] = HPLM + 10% dialyzed FBS, 0.0211 µM
[5] = HPLM + 10% dialyzed FBS, 0.0632 µM
[6] = HPLM + 10% dialyzed FBS, 0.19 µM
[7] = HPLM + 10% dialyzed FBS, 0.569 µM
[8] = HPLM + 10% dialyzed FBS, 1.71 µM
[9] = HPLM + 10% dialyzed FBS, 5.12 µM
[10] = HPLM + 10% dialyzed FBS, 15.4 µM
[11] = HPLM + 10% dialyzed FBS, 46.1 µM
[12] = RPMI 5 mM glucose + 10% dialyzed FBS, 0.000781 µM
[13] = RPMI 5 mM glucose + 10% dialyzed FBS, 0.00234 µM
[14] = RPMI 5 mM glucose + 10% dialyzed FBS, 0.00702 µM
[15] = RPMI 5 mM glucose + 10% dialyzed FBS, 0.0211 µM
[16] = RPMI 5 mM glucose + 10% dialyzed FBS, 0.0632 µM
[17] = RPMI 5 mM glucose + 10% dialyzed FBS, 0.19 µM
[18] = RPMI 5 mM glucose + 10% dialyzed FBS, 0.569 µM
[19] = RPMI 5 mM glucose + 10% dialyzed FBS, 1.71 µM
[20] = RPMI 5 mM glucose + 10% dialyzed FBS, 5.12 µM
[21] = RPMI 5 mM glucose + 10% dialyzed FBS, 15.4 µM
[22] = RPMI 5 mM glucose + 10% dialyzed FBS, 46.1 µM
[23] = RPMI 5 mM glucose + 10% FBS, 0.000781 µM
[24] = RPMI 5 mM glucose + 10% FBS, 0.00234 µM
[25] = RPMI 5 mM glucose + 10% FBS, 0.00702 µM
[26] = RPMI 5 mM glucose + 10% FBS, 0.0211 µM
[27] = RPMI 5 mM glucose + 10% FBS, 0.0632 µM
[28] = RPMI 5 mM glucose + 10% FBS, 0.19 µM
[29] = RPMI 5 mM glucose + 10% FBS, 0.569 µM
[30] = RPMI 5 mM glucose + 10% FBS, 1.71 µM
[31] = RPMI 5 mM glucose + 10% FBS, 5.12 µM
[32] = RPMI 5 mM glucose + 10% FBS, 15.4 µM
[33] = RPMI 5 mM glucose + 10% FBS, 46.1 µM

| SMILES | cell viability [1] [%] | cell viability [2] [%] | cell viability [3] [%] | cell viability [4] [%] | cell viability [5] [%] | cell viability [6] [%] | cell viability [7] [%] | cell viability [8] [%] | cell viability [9] [%] | cell viability [10] [%] | cell viability [11] [%] | cell viability [12] [%] | cell viability [13] [%] | cell viability [14] [%] | cell viability [15] [%] | cell viability [16] [%] | cell viability [17] [%] | cell viability [18] [%] | cell viability [19] [%] | cell viability [20] [%] | cell viability [21] [%] | cell viability [22] [%] | cell viability [23] [%] | cell viability [24] [%] | cell viability [25] [%] | cell viability [26] [%] | cell viability [27] [%] | cell viability [28] [%] | cell viability [29] [%] | cell viability [30] [%] | cell viability [31] [%] | cell viability [32] [%] | cell viability [33] [%] |
| --- | --- | --- | --- | --- | --- | --- | --- | --- | --- | --- | --- | --- | --- | --- | --- | --- | --- | --- | --- | --- | --- | --- | --- | --- | --- | --- | --- | --- | --- | --- | --- | --- | --- |
| C[N]1N=CC=C1C/2=C(\C)N(C(=O)C(=C2)/C(=O)NCC3=NC=C(C=C3)[S+](C)([O-])=O)C4=CC=CC(=C4)C(F)(F)F | 96 | 98.3 | 100 | 103 | 105 | 103 | 99.5 | 105 | 91.2 | 95.4 | 77.9 | 90 | 105 | 120 | 126 | 115 | 112 | 108 | 115 | 100 | 107 | 76 | – | – | – | – | – | – | – | – | – | – | – |
| CN(C(Cc1ccc(O[S+](=O)([O-])c2cccc3cnccc23)cc1)C(=O)N1CCN(c2ccccc2)CC1)[S+](=O)([O-])c1cccc2cnccc12 (stereo not given) | 102 | 110 | 112 | 105 | 110 | 108 | 114 | 95.3 | 94.6 | 74.2 | 39.1 | 110 | 120 | 100 | 119 | 114 | 120 | 114 | 110 | 90.3 | 67.1 | 34.5 | 120 | 110 | 108 | 109 | 108 | 99.7 | 108 | 96.9 | 95 | 46.2 | 22.9 |
| O=C(NCc1ccccc1)c1csc(Nc2ccncn2)n1 | 84 | 77.5 | 97 | 106 | 108 | 75.7 | 74.4 | 50.4 | 17.2 | 4.02 | 1.49 | 89.6 | 69.1 | 94.8 | 103 | 108 | 81.5 | 85.9 | 43.7 | 17.4 | 2.76 | 1.35 | 97.4 | 82.9 | 99.5 | 96.3 | 108 | 55.3 | 67.8 | 29.2 | 9.72 | 2.63 | 1.31 |
| CCCCCCCCCCCC/1=C(O)/C(=O)/C=C(O)\C1=O | 98.9 | 111 | 126 | 132 | 128 | 138 | 118 | 144 | 130 | 127 | 130 | 107 | 120 | 126 | 132 | 131 | 138 | 134 | 140 | 137 | 146 | 129 | – | – | – | – | – | – | – | – | – | – | – |
| CC1=C(/C=C/C(C)=C/C=C/C(C)=C/C(=O)O)C(C)(C)CCC1 | 111 | 114 | 116 | 129 | 133 | 123 | 137 | 145 | 122 | 115 | 102 | 112 | 107 | 128 | 99.8 | 110 | 120 | 120 | 144 | 102 | 98.3 | 84.8 | 118 | 116 | 139 | 123 | 120 | 123 | 121 | 155 | 124 | 113 | 101 |
| NC\1=N\C(=O)N(\C=C1F)[C@H]2C[C@H](O)[C@@H](CO)O2 | 110 | 123 | 116 | 89.9 | 63.4 | 30.8 | 47.2 | 43.6 | 45.5 | 34.7 | 39.7 | 125 | 128 | 93 | 53.8 | 38.7 | 21.8 | 35.4 | 40.1 | 28 | 30.1 | 28.5 | – | – | – | – | – | – | – | – | – | – | – |
